{"source": "patent US20070190029A1", "about": "“Listeria-induced immunorecruitment and activation, and methods of use thereof” (Cerus Corporation, priority 2005, published 2007)", "key": {"CT26 tumor cells [1]": {"tested_on": "CT26 tumor cells", "assay": "Survival of mice with CT26 hepatic tumors (hemispleen injection model) after attenuated Listeria, with or without CTX", "format": "in vivo, BALB/c mice", "conditions": "FIG. 1D", "procedure": "Hemispleen injections were as follows. BALB/c mice were anaesthetized and the spleen exposed. The spleen was divided into two hemispleens, leaving the vascular pedicles intact. Using a 27 gauge needle, about 0.1 million viable CT26 cells in 0.4 ml HBSS buffer were injected into the spleen, thus allowing cells to flow to the liver. The vascular pedicle draining the cancer-contaminated hemispleen was ligated with a clip, and the CT26-contaminated hemispleen was excised, leaving a functional hemispleen free of tumor cells.\nHepatic tumors were induced in mice as follows. CT26 tumor cells were administered to all mice on day zero (t=0 days) to initiate hepatic tumor formation.\nThe following concerns the number of doses of Listeria given to the mice. “1×” means that the indicated Listeria strains were administered only at t=3 days post tumor implant (only one dose). “3×” means that the indicated Listeria strains were administered at t=3 days, 6 days, and 9 days. “5×” means that the indicated Listeria strains were administered at t=3 days, 6 days, 9 days, 12 days, and 15 days. The number of administered Listeria ΔactA cells was about 1×10^7 colony forming units (CFU) while the number of Listeria ΔactAΔinlB given was about 2×10^7 CFU (FIG. 1A). […]"}, "CT26 tumor cells [2]": {"tested_on": "CT26 tumor cells", "assay": "Long-term adaptive immunity: subcutaneous CT26 re-challenge, Elispot, tumor volume (FIGS. 15, 16)", "format": "in vivo, mice", "source_text": "Mice were initially inoculated (t=0 days) with CT26 tumor cells by way of the hemispleen model, and then treated with:\n(1) No treatment with any therapeutic agent (“naive mice”);\n(2) Listeria ΔactAΔinlB (3 cycles of Listeria ΔactAΔinlB beginning at t=3 days after inoculation with the CT26 tumor cells. Administration of Listeria was once weekly for three weeks. The Listeria ΔactAΔinlB had not been engineered to express any tumor antigen;\n(3) GM-CSF vaccine with Listeria ΔactAΔinlB (1 injection of Listeria ΔactAΔinlB at t=6 days). Administration of the GM-CSF vaccine was started three days after injecting the tumor cells in the hemispleen, that is, on days 3, 6, and 10; or\nAt t=100 days (shortly before the re-challenge) and at t=107 days (post re-challenge), surviving mice in each group were assessed for long-term immunity (Elispot assays) to the immunodominant antigen of the CT26 cells (AH1 antigen). The first Elispot assay (pre re-challenge) served as a baseline assay for use in assessing adaptive immune response. The second Elispot assay (107 days; post re-challenge) was used to assess adaptive immune response. At t=102 days, all mice were inoculated with CT26 tumor cells by way of a subcutaneous re-challenge. […]\nTumor volume was assessed in the days following the CT26 tumor cell re-challenge (FIG. 16). […] The dimensions of these tumors were measured topically."}, "serum cytokines": {"tested_on": "serum cytokines", "assay": "Cytokine concentrations in mouse serum after administering Listeria, poly(I:C), or CpG (Table 7)", "format": "in vivo", "method": "Cytokine levels were measured in serum, where the serum was from blood harvested from mice at various times after administering Listeria or a toll-like receptor (TLR) agonist. The treatment groups were (1) Salt water (HBSS) treatment only (0.2 ml); (2) L. monocytogenes ΔactAΔinlB (1×10^7 bacteria); (3) L. monocytogenes Δhly (deleted in the gene encoding listeriolysin) (3×10^8 bacteria); (4) L. monocytogenes killed but metabolically active (KBMA) (3×10^8 bacteria) (see, e.g. Brockstedt, et al. (2005) Nat. Medicine 11:853-860); (5) heat killed L. monocytogenes ΔactAΔinlB (3×10^8 bacteria); (6) poly(I:C) (0.1 mg); or (7) CpG (0.1 mg). Peripheral blood was withdrawn at various times, and assessed for cytokine concentration (Mouse Cytokine/Chemokine LINCOplex® Kit Catalog # MCYTO-70K; Linco, St. Charles, Mo.; or BD® Cytometric Bead Array, San Jose, Calif.). CpG was CpG ODN 1826, purchased through Invivogen. Cytokine levels were measured on samples withdrawn at 2, 4, 8, 12, and 24 hours after administration of bacteria or TLR agonist.\nThe cytokines measured included granulocyte-colony stimulating factor (G-CSF); interferon-gamma (IFN-gamma); interleukin-1alpha (IL-1alpha); interleukin-6 (IL-6); interleukin-10 (IL-10); interleukin-12p70 (IL-12p70); interleukin-13 (IL-13); IP-10; KC (mouse ortholog of IL-8); MCP-1; MIP-1α; and TNF."}}, "data": [{"compound": "O=P1(N(CCCl)CCCl)NCCCO1", "note": "(stereo not drawn) [CTX, cyclophosphamide]", "values": [{"measurement": "survival (figure legend)", "setting": "CT26 tumor cells [1]; CTX at t=4 days, Listeria from day 5, 6 or 7", "value": "some increase in survival"}, {"measurement": "survival", "setting": "CT26 tumor cells [1]; CTX only, 50 mg/kg i.p. day 4, t=50 days", "value": "about 60%"}, {"measurement": "Elispot response to AH1 after CT26 re-challenge", "setting": "CT26 tumor cells [2]; FIG. 15, t=107 days", "value": "moderate"}, {"measurement": "mice tumor free following the re-challenge", "setting": "CT26 tumor cells [2]; subcutaneous re-challenge with 2×10^5 CT26 cells at t=102 days", "value": "about 50%"}]}, {"compound": "Poly (I:C)", "values": [{"measurement": "IFN-gamma concentration in mouse serum", "setting": "serum cytokines; 4-8 h (plateau)", "value": "(25-30 pg/ml)"}, {"measurement": "G-CSF concentration in mouse serum", "setting": "serum cytokines; 8-12 h (peak)", "value": "(6,000 pg/ml),"}, {"measurement": "IL-1alpha concentration in mouse serum", "setting": "serum cytokines; 8-12 h (plateau)", "value": "(170-300 pg/ml)"}, {"measurement": "G-CSF concentration in mouse serum", "setting": "serum cytokines; 2 h", "value": "to 1200 pg/ml"}, {"measurement": "IFN-gamma concentration in mouse serum", "setting": "serum cytokines; 2 h", "value": "to 15 pg/ml"}, {"measurement": "IL-6 concentration in mouse serum", "setting": "serum cytokines; 2 h", "value": "(7500 pg/ml)"}, {"measurement": "IL-12p70 concentration in mouse serum", "setting": "serum cytokines; 2 h", "value": 300, "unit": "at 2 h pg/ml"}, {"measurement": "IP-10 concentration in mouse serum", "setting": "serum cytokines; 2 h", "value": "to 1400 pg/ml"}, {"measurement": "KC concentration in mouse serum", "setting": "serum cytokines; 2 h", "value": "to 900 pg/ml"}, {"measurement": "MCP-1 concentration in mouse serum", "setting": "serum cytokines; 2 h", "value": "to 29,000 pg/ml"}, {"measurement": "MIP-1a concentration in mouse serum", "setting": "serum cytokines; 2 h", "value": "to 1800 pg/ml"}, {"measurement": "TNF concentration in mouse serum", "setting": "serum cytokines; 2 h", "value": "to 1500 pg/ml"}, {"measurement": "IL-13 concentration in mouse serum", "setting": "serum cytokines; 2 h-24 h", "value": "Basal"}, {"measurement": "IL-6 concentration in mouse serum", "setting": "serum cytokines; 4 h", "value": "(5000 pg/ml"}, {"measurement": "IP-10 concentration in mouse serum", "setting": "serum cytokines; 4 h (peak)", "value": "4 h (2100 pg/ml),"}, {"measurement": "IL-10 concentration in mouse serum", "setting": "serum cytokines; 4 h, 12 h, 24 h", "value": 8, "unit": "h. Basal"}, {"measurement": "IL-13 concentration in mouse serum, sporadic spikes in some mice", "setting": "serum cytokines; 4 h, 12 h, 24 h", "value": "about 200 pg/ml)"}, {"measurement": "KC concentration in mouse serum", "setting": "serum cytokines; 4 h-24 h", "value": "near basal"}, {"measurement": "MCP-1 concentration in mouse serum", "setting": "serum cytokines; 8 h", "value": "(10,000 pg/ml"}, {"measurement": "IL-6 concentration in mouse serum", "setting": "serum cytokines; 12 h", "value": "near basal"}, {"measurement": "MCP-1 concentration in mouse serum", "setting": "serum cytokines; 12 h and 24 h", "value": "(1000 pg/ml)"}, {"measurement": "IP-10 concentration in mouse serum", "setting": "serum cytokines; 24 h", "value": "drop (800 pg/ml"}, {"measurement": "IL-10 concentration in mouse serum", "setting": "serum cytokines; sporadic spikes found at 2 h and at 8 h", "value": "of 14-80 pg/ml"}]}]}
